Results as given in patent US11001590B2, “Pyrazolopyrimidine derivatives” (BAYER ANIMAL HEALTH GMBH, priority 2016, dated 2021).

How the values were obtained:
[1] = test system: Litomosoides sigmodontis third-stage larvae; experiment: In vitro assay 7: Litomosoides sigmodontis L3 (LTMOSI), motility; settings: 72 h, reduction of motility vs negative control, 72 h incubation
Cooperia curticei = experiment: In vitro assay 5: Cooperia curticei (COOPCU), larval mortality; settings: 120 h, read-out: activity (percentage of larval mortality)
Description: In Vitro Assay 5: Cooperia curticei (COOPCU)
Solvent: Dimethyl Sulfoxide
Approximately 40 nematode larvae (Cooperia curticei) are transferred into a test tube containing the compound solution.
After 5 days percentage of larval mortality is recorded. 100% efficacy means all larvae are killed; 0% efficacy means no larvae are killed.

C. elegans Slo-1a = C. elegans Slo-1a (Caenorhabditis elegans, UniProt Q95V25); experiment: In vitro assay 1: C. elegans Slo-1a, action at a recombinant C. elegans CHO cell line (membrane potential measurement)
Sequence of C. elegans Slo-1a (Q95V25 whole entry): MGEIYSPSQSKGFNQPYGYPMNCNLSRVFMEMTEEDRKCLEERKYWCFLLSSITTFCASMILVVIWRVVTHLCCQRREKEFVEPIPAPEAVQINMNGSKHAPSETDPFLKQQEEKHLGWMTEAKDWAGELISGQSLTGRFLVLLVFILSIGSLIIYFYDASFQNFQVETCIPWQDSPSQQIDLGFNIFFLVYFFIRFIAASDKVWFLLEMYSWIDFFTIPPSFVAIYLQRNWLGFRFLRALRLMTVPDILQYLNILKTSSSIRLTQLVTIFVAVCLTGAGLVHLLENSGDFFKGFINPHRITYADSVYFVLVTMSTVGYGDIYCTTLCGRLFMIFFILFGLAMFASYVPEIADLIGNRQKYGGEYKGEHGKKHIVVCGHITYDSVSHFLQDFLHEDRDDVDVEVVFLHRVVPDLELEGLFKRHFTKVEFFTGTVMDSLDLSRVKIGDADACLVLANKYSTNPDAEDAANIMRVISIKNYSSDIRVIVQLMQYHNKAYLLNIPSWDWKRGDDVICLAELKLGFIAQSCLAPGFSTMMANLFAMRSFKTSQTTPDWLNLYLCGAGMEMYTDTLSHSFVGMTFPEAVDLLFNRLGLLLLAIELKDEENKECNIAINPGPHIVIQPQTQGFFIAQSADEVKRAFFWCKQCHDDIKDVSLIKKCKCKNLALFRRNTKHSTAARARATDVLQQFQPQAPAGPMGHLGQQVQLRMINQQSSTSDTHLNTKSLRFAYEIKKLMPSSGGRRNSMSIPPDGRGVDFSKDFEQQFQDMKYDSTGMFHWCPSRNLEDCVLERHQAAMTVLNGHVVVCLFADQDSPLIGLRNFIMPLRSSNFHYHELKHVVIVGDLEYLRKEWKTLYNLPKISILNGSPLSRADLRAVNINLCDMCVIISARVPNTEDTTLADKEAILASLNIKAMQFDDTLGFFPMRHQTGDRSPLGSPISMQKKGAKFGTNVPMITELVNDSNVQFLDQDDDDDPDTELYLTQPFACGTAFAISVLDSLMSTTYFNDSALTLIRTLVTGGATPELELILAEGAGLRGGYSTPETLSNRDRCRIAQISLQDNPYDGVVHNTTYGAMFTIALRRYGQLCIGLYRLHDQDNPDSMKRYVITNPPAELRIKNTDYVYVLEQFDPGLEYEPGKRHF

[2] = test system: Dirofilaria immitis microfilariae; experiment: In vitro assay 3: Dirofilaria immitis microfilariae (DIROIM L1), motility; settings: 72 h, reduction of motility vs negative control, 72 h incubation
[3] = test system: Dirofilaria immitis third-stage larvae; experiment: In vitro assay 4: Dirofilaria immitis (DIROIM L4), motility of larvae; settings: 72 h
[4] = test system: Nippostrongylus brasiliensis; experiment: In vitro assay 2: Nippostrongylus brasiliensis (NIPOBR), acetylcholine esterase readout; settings: adult worms, read-out: activity (reduction of AChE compared to negative control); for inhibition at 1 µg/mL: 1 μg/ml (1 ppm); for inhibition at 10 µg/mL: 10 μg/ml (10 ppm)
Description: In Vitro Assay 2: Nippostronqylus Brasiliensis (NIPOBR)
Adult Nippostrongylus brasiliensis were washed with saline buffer containing 100 U/ml penicillin, 0.1 mg/ml streptomycin and 2.5 μg/ml amphotericin B. Test compounds were dissolved in DMSO and worms were incubated in medium in a final concentration of 10 μg/ml (10 ppm) respectively 1 μg/ml (1 ppm). An aliquot of the medium was used to determine the acetylcholine esterase activity in comparison to a negative control. The principle of measuring acetylcholine esterase as readout for anthelmintic activity was described in Rapson et al (1986) and Rapson et al (1987).

[5] = log P by HPLC on reversed phase columns (Method L0; [a] acidic, [b] neutral range)
Description: Calibration was done with straight-chain alkan-2-ones (with 3 to 16 carbon atoms) with known log P values (measurement of log P values using retention times with linear interpolation between successive alkanones). Lambda-max-values were determined using UV-spectra from 200 nm to 400 nm and the peak values of the chromatographic signals.

Haemonchus contortus = experiment: In vitro assay 6: Haemonchus contortus (HAEMCO), larval mortality; settings: Haemonchus contortus, 120 h, read-out: activity (percentage of larval mortality)
Description: In Vitro Assay 6: Haemonchus contortus (HAEMCO)
Solvent: dimethyl sulfoxide
Approximately 40 larvae of the red stomach worm (Haemonchus contortus) are transferred into a test tube containing compound solution.
After 5 days the percentage of larval mortality is recorded. 100% efficacy means all larvae are killed, 0% efficacy means no larvae are killed.

Compound | EC50 [1] [µg/mL] | mortality at 20 ppm (Cooperia curticei) [%] | EC50 (C. elegans Slo-1a) [nM] | EC50 [2] [µg/mL] | EC50 [3] [µg/mL] | inhibition at 1 µg/mL [4] [%] | inhibition at 10 µg/mL [4] [%] | chromatographic logP [5] | mortality at 20 ppm (Haemonchus contortus) [%] | mortality at 4 ppm (Haemonchus contortus) [%]
Cc1nn2c(C3CC3)c(C(=O)N[C@H]3CCOc4ccccc43)cnc2c1-c1cccc(Cl)c1Cl [Example 473] | < 0.1 | 90 | 0.501 | < 0.1 | < 0.1 | > 80 | > 80 | 4.07 |  | 
Cc1nn2c(C(C)C)c(C(=O)N[C@H]3CCOc4ccccc43)cnc2c1-c1cc(Cl)cc(C(F)(F)F)c1 [Example 240] |  | 90 | 5.01 | < 1 |  | > 80 | > 80 | 5.65 |  | 
Cc1nn2c(C(C)C)c(C(=O)N[C@H]3CCOc4ccccc43)cnc2c1-c1cccc(N(C)C)c1F [Example 260] |  | 90 | 3.16 | < 1 |  | > 80 | > 80 | 4.18 | 80 | 
Cc1nn2c(C(C)C)c(C(=O)N[C@H]3CCOc4ccccc43)cnc2c1-c1cc(Cl)cc(Cl)c1F [Example 262] | < 0.1 | 90 | 0.501 | < 0.1 | < 0.1 | > 80 | > 80 | 5.36 |  | 
Cc1nn2c(C3CC3)c(C(=O)N[C@H]3CCOc4ccccc43)cnc2c1-c1cccc2c1CCN2C [Example 474] | < 0.1 | 90 | 6.31 | < 1 | < 0.1 |  | > 80 | 3.25 |  | 
Cc1nn2c(C(C)C)c(C(=O)N[C@H]3CCOc4ccccc43)cnc2c1-c1c(F)ccc(F)c1F [Example 253] | < 0.1 |  | 1.26 | < 0.1 | < 0.1 |  | > 80 | 4.32 |  | 80
Cc1nn2c(N3CCOCC3)c(C(=O)N[C@H]3CCOc4ccccc43)cnc2c1-c1cccc(C(F)(F)F)c1Cl [Example 532] |  | 100 | 1 | < 0.1 |  |  |  | 5.59 | 90 | 
COc1cc(-c2c(C)nn3c(C(C)C)c(C(=O)N[C@H]4CCOc5ccccc54)cnc23)ccc1F [Example 244] | < 0.1 | 90 | 6.31 | < 1 | < 0.1 | > 80 | > 80 | 4.32 |  | 
Cc1nn2c(C3CC3)c(C(=O)N[C@H]3CCOc4ccccc43)cnc2c1-c1cccc(N(C)C)c1 [Example 453] |  | 80 | 2.51 | < 1 |  |  | > 80 | 2.72 |  | 
Cc1nn2c(C(C)C)c(C(=O)N[C@H]3CCc4ccccc43)cnc2c1-c1cccc(F)c1F [Example 141] | < 0.1 |  | 7.94 | < 0.1 | < 0.1 |  | > 80 | 4.6 |  | 
Cc1nn2c(C(C)C)c(C(=O)N[C@H]3CCOc4ccccc43)cnc2c1-c1cccc(C(F)(F)F)c1 [Example 6] | < 1 | 80 | 12.6 | < 1 |  |  |  | 5.03 |  | 
Cc1nn2c(C(C)C)c(C(=O)N[C@H]3CCc4ccccc43)cnc2c1-c1cc(Cl)cc(Cl)c1F [Example 261] |  | 80 | 1.58 | < 0.1 | < 0.1 | > 80 | > 80 | 5.65 |  | 
CNc1c(C(=O)N[C@H]2CCOc3ccccc32)cnc2c(-c3cccc(Cl)c3Cl)c(C)nn12 [Example 548] |  | 90 | 6.31 | < 0.1 |  |  |  | 4.18 | 90 | 
Cc1nn2c(C(C)C)c(C(=O)N[C@H]3CCc4ccccc43)cnc2c1-c1cc(Cl)c(F)c(Cl)c1 [Example 127] | < 0.1 |  | 10 | < 0.1 | < 0.1 |  | > 80 | 5.91 |  | 
Cc1nn2c(C(C)C)c(C(=O)N[C@H]3CCOc4ccccc43)cnc2c1-c1cc(Cl)c(F)c(Cl)c1 [Example 194] | < 0.1 |  | 12.6 | < 0.1 | < 0.1 | > 80 | > 80 | 5.65 |  | 
